Measurements as given in patent US10494363B2, “Non-steroidal glucocorticoid receptor modulators for local drug delivery” (LEO PHARMA A/S, priority 2015, dated 2019).

Assays:
[1] = Human liver microsomes (HLM) assay; type: in vitro ADME; settings: hepatic extraction ratio; 0.5 μM compound, 0.5 mg/mL microsomes, NADPH, 37° C.
Outline: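 Compound at 0.5 μM incubated at 37° C. with human liver microsomes (0.5 mg/mL) and NADPH (1 mM) in phosphate buffer pH 7.4, 1% organic solvent; sampled 0-30 minutes. Clapp (mL/min/kg) and Eh (%) derived from depletion rate constant.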

[2] = target: T1, glucocorticoid receptor (GR), recombinant full-length receptor protein (Homo sapiens, UniProt P04150); test: Glucocorticoid receptor binding assay (fluorescence polarization kit); settings: 4 nM receptor, 2.5 nM Fluormone GS1 tracer, 2h room temperature, read-out: GR binding ABS IC50
T1 construct: 4 nM recombinant, full-length receptor protein was incubated with increasing concentrations of GR ligand; purchased Life Technologies A-15897
T1 sequence (P04150 1-777): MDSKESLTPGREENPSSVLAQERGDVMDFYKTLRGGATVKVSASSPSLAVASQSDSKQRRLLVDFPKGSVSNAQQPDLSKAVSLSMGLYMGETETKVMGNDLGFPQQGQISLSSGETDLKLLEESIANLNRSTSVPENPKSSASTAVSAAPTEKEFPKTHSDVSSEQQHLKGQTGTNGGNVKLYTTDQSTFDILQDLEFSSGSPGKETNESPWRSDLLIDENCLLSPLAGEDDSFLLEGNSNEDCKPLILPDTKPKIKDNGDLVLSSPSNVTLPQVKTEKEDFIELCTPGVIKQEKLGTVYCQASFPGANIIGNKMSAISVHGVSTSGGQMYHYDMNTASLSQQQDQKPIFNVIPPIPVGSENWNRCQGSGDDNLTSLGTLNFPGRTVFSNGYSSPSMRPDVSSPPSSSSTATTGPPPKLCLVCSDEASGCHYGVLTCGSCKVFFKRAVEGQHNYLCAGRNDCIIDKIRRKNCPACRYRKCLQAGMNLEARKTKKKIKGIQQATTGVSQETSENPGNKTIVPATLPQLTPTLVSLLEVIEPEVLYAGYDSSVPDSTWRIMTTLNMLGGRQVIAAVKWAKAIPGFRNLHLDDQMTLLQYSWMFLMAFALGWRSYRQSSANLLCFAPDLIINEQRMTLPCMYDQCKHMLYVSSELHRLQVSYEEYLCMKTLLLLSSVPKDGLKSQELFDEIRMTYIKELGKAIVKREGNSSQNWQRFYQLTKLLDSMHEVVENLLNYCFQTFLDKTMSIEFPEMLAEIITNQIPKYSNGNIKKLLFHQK
Method: Test compounds were diluted in DMSO over seven orders of magnitude, further diluted in assay buffer and distributed into 384-well plates. The sensitivity limit of this assay was 2-4 nM.
Data were processed by sigmoidal curve fitting.
Absolute (Abs) IC50 and Emax were determined from the curve fits.

[3] = system: TNF alpha release from human PBMCs; test: Inhibition of TNF alpha release from human PBMCs; type: cell-based; settings: PBMC, LPS 1 μg/ml, 18 hours, AlphaLISA
Outline: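 Fresh or thawed PBMCs in serum-free medium with 0.5% HSA, stimulated with 1 μg/ml LPS plus titrated compound for 18 h at 37° C. TNF-a in supernatant by AlphaLISA; window set with a reference PDE4 inhibitor at 100×IC50. EC50 and Emax from sigmoidal fits.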

Row | Compound | HLM assay Eh (%) [1] | IC50 [2] [nM] | EC50 [3] [nM]
1 | C[C@H](NC(=O)c1ccon1)[C@H](Oc1ccc(C(=O)N[C@H]2CCCN(C(=O)[C@H]3COC(=O)C3)C2)nc1)c1ccc(C2CC2)cc1 [Compound 23, N-[(1S,2R)-2-(4-cyclopropylphenyl)-1-methyl-2-[[6-[[(3S)-1-[(3R)-5-oxotetrahydrofuran-3-carbonyl]-3-piperidyl]carbamoyl]-3-pyridyl]oxy]ethyl]isoxazole-3-carboxamide] | * (extraction ratio (Eh)>90%) | < 100 | < 100
2 | C[C@H](NC(=O)c1nccn1C)[C@H](Oc1ccc(C(=O)O[C@H]2CCCN(C(=O)[C@H]3COC(=O)C3)C2)cc1)c1ccc(C2CC2)cc1 [Compound 40, [(3S)-1-[(3R)-5-oxotetrahydrofuran-3-carbonyl]-3-piperidyl] 4-[(1R,2S)-1-(4-cyclopropylphenyl)-2-[(1-methylimidazole-2-carbonyl)amino]propoxy]benzoate] | * (extraction ratio (Eh)>90%) | < 100 | < 100
3 | Cc1cc(C(=O)N[C@@H](C)[C@H](Oc2ccc(C(=O)O[C@H]3CCCN(C(=O)[C@H]4COC(=O)C4)C3)cc2)c2ccc(C3CC3)cc2)on1 [Compound 41, [(3S)-1-[(3R)-5-oxotetrahydrofuran-3-carbonyl]-3-piperidyl] 4-[(1R,2S)-1-(4-cyclopropylphenyl)-2-[(3-methylisoxazole-5-carbonyl)amino]propoxy]benzoate] | * (extraction ratio (Eh)>90%) | < 100 | < 100
4 | C[C@H](NC(=O)C(C)(F)F)[C@H](Oc1ccc(C(=O)O[C@H]2CCCN(C(=O)[C@H]3COC(=O)C3)C2)cc1)c1ccc(C2CC2)cc1 [Compound 58, [(3S)-1-[(3R)-5-oxotetrahydrofuran-3-carbonyl]-3-piperidyl] 4-[(1R,2S)-1-(4-cyclopropylphenyl)-2-(2,2-difluoropropanoylamino)propoxy]benzoate] | * (extraction ratio (Eh)>90%) | < 100 | < 100
5 | C[C@H](NC(=O)C(F)(F)F)[C@H](Oc1ccc(C(=O)N[C@H]2CCCN(C(=O)[C@H]3COC(=O)C3)C2)nc1)c1ccc(C2CC2)cc1 [Compound 2, 5-[(1R,2S)-1-(4-cyclopropylphenyl)-2-[(2,2,2-trifluoroacetyl)amino]propoxy]-N-[(3S)-1-[(3R)-5-oxotetrahydrofuran-3-carbonyl]-3-piperidyl]pyridine-2-carboxamide] | * (extraction ratio (Eh)>90%) | < 100 | < 100
6 | C[C@H](NC(=O)[C@H]1CCCO1)[C@H](Oc1ccc(C(=O)O[C@H]2CCCN(C(=O)[C@H]3COC(=O)C3)C2)cc1)c1ccc(C2CC2)cc1 [Compound 37, [(3S)-1-[(3R)-5-oxotetrahydrofuran-3-carbonyl]-3-piperidyl] 4-[(1R,2S)-1-(4-cyclopropylphenyl)-2-[[(2R)-tetrahydrofuran-2-carbonyl]amino]propoxy]benzoate] | * (extraction ratio (Eh)>90%) | < 100 | < 100
7 | Cc1ncoc1C(=O)N[C@@H](C)[C@H](Oc1ccc(C(=O)O[C@H]2CCCN(C(=O)[C@H]3COC(=O)C3)C2)cc1)c1ccc(C2CC2)cc1 [Compound 33, [(3S)-1-[(3R)-5-oxotetrahydrofuran-3-carbonyl]-3-piperidyl] 4-[(1R,2S)-1-(4-cyclopropylphenyl)-2-[(4-methyloxazole-5-carbonyl)amino]propoxy]benzoate] | * (extraction ratio (Eh)>90%) | < 100 | 100 to 300
8 | C[C@H](NC(=O)c1ncon1)[C@H](Oc1ccc(C(=O)O[C@H]2CCCN(C(=O)[C@H]3COC(=O)C3)C2)cc1)c1ccc(C2CC2)cc1 [Compound 39, [(3S)-1-[(3R)-5-oxotetrahydrofuran-3-carbonyl]-3-piperidyl] 4-[(1R,2S)-1-(4-cyclopropylphenyl)-2-(1,2,4-oxadiazole-3-carbonylamino)propoxy]benzoate] | * (extraction ratio (Eh)>90%) | < 100 | < 100
9 | Cc1nnsc1C(=O)N[C@@H](C)[C@H](Oc1ccc(C(=O)O[C@H]2CCCN(C(=O)[C@H]3COC(=O)C3)C2)cc1)c1ccc(C2CC2)cc1 [Compound 32, [(3S)-1-[(3R)-5-oxotetrahydrofuran-3-carbonyl]-3-piperidyl] 4-[(1R,2S)-1-(4-cyclopropylphenyl)-2-[(4-methylthiadiazole-5-carbonyl)amino]propoxy]benzoate] | * (extraction ratio (Eh)>90%) | < 100 | < 100
10 | Cc1cnc(C(=O)N[C@@H](C)[C@H](Oc2ccc(C(=O)O[C@H]3CCCN(C(=O)[C@H]4COC(=O)C4)C3)cc2)c2ccc(C3CC3)cc2)s1 [Compound 26, [(3S)-1-[(3R)-5-oxotetrahydrofuran-3-carbonyl]-3-piperidyl] 4-[(1R,2S)-1-(4-cyclopropylphenyl)-2-[(5-methylthiazole-2-carbonyl)amino]propoxy]benzoate] | * (extraction ratio (Eh)>90%) | < 100 | < 100
11 | Cc1cc(C(=O)N[C@@H](C)[C@H](Oc2ccc(C(=O)N[C@H]3CCCN(C(=O)[C@H]4COC(=O)C4)C3)nc2)c2ccc(C3CC3)cc2)on1 [Compound 8, N-[(1S,2R)-2-(4-cyclopropylphenyl)-1-methyl-2-[[6-[[(3S)-1-[(3R)-5-oxotetrahydrofuran-3-carbonyl]-3-piperidyl]carbamoyl]-3-pyridyl]oxy]ethyl]-3-methylisoxazole-5-carboxamide] | * (extraction ratio (Eh)>90%) | < 100 | < 100
12 | C[C@H](NC(=O)C1(O)CCC1)[C@H](Oc1ccc(C(=O)N[C@H]2CCCN(C(=O)[C@H]3COC(=O)C3)C2)nc1)c1ccc(C2CC2)cc1 [Compound 17, 5-[(1R,2S)-1-(4-cyclopropylphenyl)-2-[(1-hydroxycyclobutanecarbonyl)amino]propoxy]-N-[(3S)-1-[(3R)-5-oxotetrahydrofuran-3-carbonyl]-3-piperidyl]pyridine-2-carboxamide] | * (extraction ratio (Eh)>90%) | 100 to 300 | < 100
13 | C[C@H](NC(=O)[C@@H]1CCCO1)[C@H](Oc1ccc(C(=O)N[C@H]2CCCN(C(=O)[C@H]3COC(=O)C3)C2)nc1)c1ccc(C2CC2)cc1 [Compound 20, 5-[(1R,2S)-1-(4-cyclopropylphenyl)-2-[[(2S)-tetrahydrofuran-2-carbonyl]amino]propoxy]-N-[(3S)-1-[(3R)-5-oxotetrahydrofuran-3-carbonyl]-3-piperidyl]pyridine-2-carboxamide] | * (extraction ratio (Eh)>90%) | 100 to 300 | < 100
14 | Cc1nocc1C(=O)N[C@@H](C)[C@H](Oc1ccc(C(=O)O[C@H]2CCCN(C(=O)[C@H]3COC(=O)C3)C2)cc1)c1ccc(C2CC2)cc1 [Compound 45, [(3S)-1-[(3R)-5-oxotetrahydrofuran-3-carbonyl]-3-piperidyl] 4-[(1R,2S)-1-(4-cyclopropylphenyl)-2-[(3-methylisoxazole-4-carbonyl)amino]propoxy]benzoate] | * (extraction ratio (Eh)>90%) | < 100 | < 100
15 | Cc1sncc1C(=O)N[C@@H](C)[C@H](Oc1ccc(C(=O)O[C@H]2CCCN(C(=O)[C@H]3COC(=O)C3)C2)cc1)c1ccc(C2CC2)cc1 [Compound 48, [(3S)-1-[(3R)-5-oxotetrahydrofuran-3-carbonyl]-3-piperidyl] 4-[(1R,2S)-1-(4-cyclopropylphenyl)-2-[(5-methylisothiazole-4-carbonyl)amino]propoxy]benzoate] | * (extraction ratio (Eh)>90%) | < 100 | < 100
16 | C[C@H](NC(=O)c1cnco1)[C@H](Oc1ccc(C(=O)O[C@H]2CCCN(C(=O)[C@H]3COC(=O)C3)C2)cc1)c1ccc(C2CC2)cc1 [Compound 50, [(3S)-1-[(3R)-5-oxotetrahydrofuran-3-carbonyl]-3-piperidyl] 4-[(1R,2S)-1-(4-cyclopropylphenyl)-2-(oxazole-5-carbonylamino)propoxy]benzoate] | * (extraction ratio (Eh)>90%) | < 100 | < 100
